Reference: ChEMBL document CHEMBL1151364, “19-Hydroxybaccatin III, 10-deacetylcephalomannine, and 10-deacetyltaxol: new antitumor taxanes from Taxus wallichiana” (1981)
In brackets after ≈: the same amount, converted by molar mass. Activity calls are given as the source filed them. The calls are words filed in the database; no cut-off is given here.

Assays:
KB = assay: Cytotoxicity against human KB cells; assay type: functional; settings: for EC50: Homo sapiens, KB, read-out: ED50 (the source's name)
P388 [1] = assay: In vivo antitumor activity against mouse P388 cells at 16 mg/kg relative to control; assay type: functional
P388 [2] = assay: In vivo antitumor activity against mouse P388 cells at 2.2 mg/kg relative to control; assay type: functional
P388 [3] = assay: In vivo antitumor activity against mouse P388 cells at 0.26 to 4.3 mg/kg; assay type: functional, organism-based

## CC(=O)O[C@@]12CO[C@@H]1C[C@H](O)[C@@]1(C)C(=O)[C@H](O)C3=C(C)[C@@H](OC(=O)[C@H](O)[C@@H](NC(=O)c4ccccc4)c4ccccc4)C[C@@](O)([C@@H](OC(=O)c4ccccc4)[C@H]21)C3(C)C
KB
  EC50: 0.027 µg/mL (≈ 0.0333 µM)
P388 [1]
  T/C: 135%

## CC(=O)O[C@H]1C(=O)[C@@]2(C)[C@H]([C@H](OC(=O)c3ccccc3)[C@]3(O)C[C@H](OC(=O)[C@H](O)[C@@H](NC(=O)c4ccccc4)c4ccccc4)C(C)=C1C3(C)C)[C@]1(OC(C)=O)CO[C@@H]1C[C@@H]2O [PACLITAXEL]
KB
  EC50: 0.0012 µg/mL (≈ 0.00141 µM)
P388 [2]
  T/C: 152%

## C/C=C(\C)C(=O)N[C@@H](c1ccccc1)[C@@H](O)C(=O)O[C@H]1C[C@@]2(O)[C@@H](OC(=O)c3ccccc3)[C@@H]3[C@]4(OC(C)=O)CO[C@@H]4C[C@@H](O)[C@@]3(C)C(=O)[C@H](O)C(=C1C)C2(C)C
KB
  EC50: 0.046 µg/mL (≈ 0.0582 µM)

## C/C=C(\C)C(=O)N[C@@H](c1ccccc1)[C@@H](O)C(=O)O[C@H]1C[C@@]2(O)[C@@H](OC(=O)c3ccccc3)[C@@H]3[C@]4(OC(C)=O)CO[C@@H]4C[C@H](O)[C@@]3(C)C(=O)[C@H](OC(C)=O)C(=C1C)C2(C)C [CEPHALOMANNINE]
KB
  EC50: 0.0038 µg/mL (≈ 0.00457 µM)
P388 [2]
  T/C: 162%

## CC(=O)O[C@@]12CO[C@@H]1C[C@@H](O)[C@@]1(C)C(=O)[C@H](O)C3=C(C)[C@@H](OC(=O)[C@H](O)[C@@H](NC(=O)c4ccccc4)c4ccccc4)C[C@@](O)([C@@H](OC(=O)c4ccccc4)[C@H]21)C3(C)C
KB
  EC50: 0.034 µg/mL (≈ 0.0419 µM)

## C/C=C(\C)C(=O)N[C@@H](c1ccccc1)[C@@H](O)C(=O)O[C@H]1C[C@@]2(O)[C@@H](OC(=O)c3ccccc3)[C@@H]3[C@]4(OC(C)=O)CO[C@@H]4C[C@H](O)[C@@]3(C)C(=O)[C@H](O)C(=C1C)C2(C)C
KB
  EC50: 0.031 µg/mL (≈ 0.0392 µM)
P388 [1]
  T/C: 130%

## CC(=O)O[C@H]1C(=O)[C@@]2(CO)[C@H]([C@H](OC(=O)c3ccccc3)[C@]3(O)C[C@H](O)C(C)=C1C3(C)C)[C@]1(OC(C)=O)CO[C@@H]1C[C@@H]2O
KB
  Activity: 2.2 µg/mL
P388 [3]
  Activity: inactive
